Assay results: patent publication US4443436A, “C-20-Modified macrolide derivatives of the macrolide antibiotics tylosin, desmycosin, macrocin, and lactenocin” (Eli Lilly and Company, priority 1982, dated 1984)
Values after ≈ are worked out from the molar mass of the structure shown. Where two headings read alike, the source gives them in different places.

How the values were obtained:
[1] = system: Staphylococcus aureus X1.1; assay: MIC, standard agar-dilution assay, Staphylococcus aureus X1.1; format: cell-based
[2] = system: Staphylococcus aureus V41; assay: MIC, standard agar-dilution assay, Staphylococcus aureus V41; format: cell-based
[3] = system: Staphylococcus aureus X400; assay: MIC, standard agar-dilution assay, Staphylococcus aureus X400; format: cell-based
[4] = system: Staphylococcus aureus S13E; assay: MIC, standard agar-dilution assay, Staphylococcus aureus S13E; format: cell-based
[5] = system: Staphylococcus epidermidis EPI1; assay: MIC, standard agar-dilution assay, Staphylococcus epidermidis EPI1; format: cell-based
[6] = system: Staphylococcus epidermidis EPI2; assay: MIC, standard agar-dilution assay, Staphylococcus epidermidis EPI2; format: cell-based; details: Staphylococcus epidermidis EPI2, agar dilution
[7] = system: Streptococcus pyogenes C203; assay: MIC, standard agar-dilution assay, Streptococcus pyogenes C203; format: cell-based
[8] = system: Streptococcus pneumoniae Park I; assay: microbe, parasite or virus in culture; format: cell-based
[9] = system: Streptococcus Group D X66; assay: MIC, standard agar-dilution assay, Streptococcus Group D X66; format: cell-based
[10] = system: Streptococcus Group 9960; assay: MIC, standard agar-dilution assay, Streptococcus Group 9960; format: cell-based
[11] = system: Haemophilus influenzae Holt; assay: MIC, standard agar-dilution assay, Haemophilus influenzae Holt; format: cell-based
[12] = system: Haemophilus influenzae R252; assay: MIC, standard agar-dilution assay, Haemophilus influenzae R252; format: cell-based
[13] = system: Staphylococcus aureus; assay: MIC, broth-dilution microtiter test, Staphylococcus aureus; format: cell-based; details: broth-dilution microtiter
From the text: (§1) The MIC's in Table X were obtained using conventional broth-dilution microtiter tests.

[14] = system: Streptococcus bovis 80; assay: MIC, broth-dilution microtiter test, Streptococcus bovis 80; format: cell-based; details: Streptococcus bovis 80, broth-dilution microtiter
From the text: as §1

[15] = system: Pasteurella multocida 17E; assay: MIC, broth-dilution microtiter test, Pasteurella multocida 17E; format: cell-based
From the text: as §1

[16] = system: Pasteurella multocida 60A; assay: MIC, broth-dilution microtiter test, Pasteurella multocida 60A; format: cell-based; details: Pasteurella multocida 60A, avian isolate, broth-dilution microtiter
From the text: as §1

[17] = system: Pasteurella hemolytica 22C; assay: MIC, broth-dilution microtiter test, Pasteurella hemolytica 22C; format: cell-based
From the text: as §1

[18] = system: Mycoplasma gallisepticum; assay: MIC, broth-dilution microtiter test, Mycoplasma gallisepticum; format: cell-based; details: Mycoplasma gallisepticum, broth-dilution microtiter
From the text: as §1

[19] = system: Mycoplasma synoviae; assay: MIC, broth-dilution microtiter test, Mycoplasma synoviae; format: cell-based
From the text: as §1

[20] = system: Mycoplasma hyorhinis; assay: MIC, broth-dilution microtiter test, Mycoplasma hyorhinis; format: cell-based
From the text: as §1

[21] = system: Mycoplasma hyopneumoniae; assay: MIC, broth-dilution microtiter test, Mycoplasma hyopneumoniae; format: cell-based; details: Mycoplasma hyopneumoniae, broth-dilution microtiter
From the text: as §1

[22] = system: Streptococcus pyogenes C203; assay: In vivo protection of mice experimentally infected with S. pyogenes C203; details: mice, doses given 1 and 4 hours post-infection; for ED50: Streptococcus pyogenes
Procedure: The C-20 modified derivatives of this invention have shown in vivo antimicrobial activity against experimentally-induced infections in laboratory animals. When two doses of test compound were administered to mice experimentally infected with S. pyogenes C203, the activity observed was measured as an ED50 value [effective dose in mg/kg to protect 50% of the test animals: see Warren Wick, et al., J. Bacteriol. 81, 233-235 (1961)].

[23] = system: Pasteurella multocida; assay: Oral (gavage) treatment of Pasteurella multocida-infected chicks; format: in vivo, one-day-old chicks
Procedure: Many of the C-20 modified derivatives of this invention have also shown in vivo antibacterial activity against infections induced by gram-negative bacteria. Tables XII and XIII summarize the results of tests in which illustrative compounds were evaluated against Pasteurella infection in one-day-old chicks. The compounds were administered parenterally or orally after challenge of the chicks with Pasteurella multocida (0.1 ml of a 10^-4 dilution of a twenty-hour tryptose broth culture of an avian P. multocida given subcutaneously). In these tests, unless indicated otherwise, all non-medicated infected chicks died within 24 hours of Pasteurella challenge. In the tests summarized in Table XII the compounds were administered by subcutaneous injection at a dosage of 30 mg/kg, 1 and 4 hours post-challenge of the chicks with P. multocida. In the test summarized in Table XIII the compounds were administered by gavage at 1 and 5 hours post-challenge of the chicks with P. multocida.

[24] = Streptococcus equinus, read-out: MIC
[25] = Mycoplasmoides gallisepticum, read-out: MIC
[26] = Mesomycoplasma hyopneumoniae, read-out: MIC
[27] = C203, sc, subcutaneous, read-out: ED50, Subcutaneous
[28] = C203, oral, read-out: ED50, Oral

`CCC1OC(=O)CC(O)C(C)C(OC2OC(C)C(O)C(N(C)C)C2O)C(CCF)CC(C)C(=O)C=CC(C)=CC1COC1OC(C)C(O)C(OC)C1OC` (stereo not drawn) [Compound 22, 20-DH-DO-20-Fluorodesmycosin] showed an MIC ([1]; Staphylococcus aureus, X1.1) of 0.25 µg/mL (≈ 0.322 µM), an MIC ([2]; Staphylococcus aureus, V41) of 0.25 µg/mL (≈ 0.322 µM) and an MIC ([3]; Staphylococcus aureus X400, methicillin-resistant strain, agar dilution, read-out: MIC) of 0.5 µg/mL (≈ 0.644 µM). For the same compound, the MIC ([4]; Staphylococcus aureus, S13E) was 0.25 µg/mL (≈ 0.322 µM), the MIC ([5]; Staphylococcus epidermidis EPI1, agar dilution, read-out: MIC) was 0.12 µg/mL (≈ 0.155 µM) and the MIC ([6]; read-out: MIC) was 0.12 µg/mL (≈ 0.155 µM). It also gave an MIC ([7]; Streptococcus pyogenes, C203) of 0.25 µg/mL (≈ 0.322 µM), an MIC ([8]; Streptococcus pneumoniae) of 2 µg/mL (≈ 2.58 µM) and an MIC [9] of 8 µg/mL (≈ 10.3 µM). For the same compound, the MIC ([10]; GROUP9960) was 8 µg/mL (≈ 10.3 µM), the MIC ([11]; Haemophilus influenzae Holt, ampicillin-sensitive strain, read-out: MIC) was 16 µg/mL (≈ 20.6 µM) and the MIC ([12]; Haemophilus influenzae R252, ampicillin-resistant strain, read-out: MIC) was 16 µg/mL (≈ 20.6 µM). It also gave an MIC ([13]; read-out: MIC) of 3.12 µg/mL (≈ 4.02 µM), an MIC [14, 24] of 1.56 µg/mL (≈ 2.01 µM) and an MIC ([15]; Pasteurella multocida 17E, bovine isolate, broth-dilution microtiter, read-out: MIC) of 25 µg/mL (≈ 32.2 µM). It also gave an MIC ([16]; read-out: MIC) of 25 µg/mL (≈ 32.2 µM), an MIC ([17]; Pasteurella hemolytica 22C, broth-dilution microtiter, read-out: MIC) of over 50 µg/mL and an MIC [18, 25] of 12.5 µg/mL (≈ 16.1 µM). It also gave an MIC ([19]; Mycoplasmopsis synoviae) of 50 µg/mL (≈ 64.4 µM), an MIC ([20]; Mycoplasma) of 50 µg/mL (≈ 64.4 µM) and an MIC [21, 26] of over 25 µg/mL. The ED50 [22, 27] was 5 mg/kg, the ED50 [22, 28] was 11 mg/kg and the “Number of Deaths/Number tested” value ([23]; 0.5 g/gal equivalent) was 6/10. The “Number of Deaths/Number tested” value ([23]; 1.0 g/gal equivalent) was 0/10 and the “Number of Deaths/Number tested” value ([23]; 2.0 g/gal equivalent) was 1/10.
Compound `CCC1OC(=O)CC(O)C(C)C(OC2OC(C)C(O)C(N(C)C)C2O)C(CCOc2cc(Cl)cc(Cl)c2)CC(C)C(=O)C=CC(C)=CC1COC1OC(C)C(O)C(OC)C1OC` (stereo not drawn) [Compound 40, 20-DH-20-O-(3,5-Dichlorophenyl)desmycosin] has an MIC ([1]; Staphylococcus aureus X1.1, agar dilution) of 0.25 µg/mL (≈ 0.272 µM), an MIC ([2]; Staphylococcus aureus V41, penicillin-resistant strain, agar dilution) of 0.25 µg/mL (≈ 0.272 µM) and an MIC ([3]; Staphylococcus aureus X400, methicillin-resistant strain, agar dilution) of 0.25 µg/mL (≈ 0.272 µM). For the same compound, the MIC ([4]; Staphylococcus aureus S13E, agar dilution) was 0.25 µg/mL (≈ 0.272 µM), the MIC ([5]; Staphylococcus epidermidis EPI1, agar dilution) was 0.25 µg/mL (≈ 0.272 µM) and the MIC [6] was 0.12 µg/mL (≈ 0.131 µM). It also gave an MIC ([7]; Streptococcus pyogenes C203, agar dilution) of 0.12 µg/mL (≈ 0.131 µM), an MIC ([8]; Streptococcus pneumoniae Park I, agar dilution) of 1 µg/mL (≈ 1.09 µM) and an MIC ([9]; Streptococcus Group D X66, agar dilution) of 4 µg/mL (≈ 4.35 µM). The MIC ([10]; Streptococcus Group 9960, agar dilution) was 8 µg/mL (≈ 8.71 µM), the MIC ([11]; Haemophilus influenzae Holt, ampicillin-sensitive strain, agar dilution) was 32 µg/mL (≈ 34.8 µM) and the MIC ([12]; Haemophilus influenzae R252, ampicillin-resistant strain, agar dilution) was 16 µg/mL (≈ 17.4 µM). For the same compound, the MIC [13] was 0.39 µg/mL (≈ 0.424 µM), the MIC [14] was 3.12 µg/mL (≈ 3.4 µM) and the MIC ([15]; Pasteurella multocida 17E, bovine isolate, broth-dilution microtiter) was 12.5 µg/mL (≈ 13.6 µM). For the same compound, the MIC [16] was 12.5 µg/mL (≈ 13.6 µM), the MIC ([17]; Pasteurella hemolytica 22C, broth-dilution microtiter) was 12.5 µg/mL (≈ 13.6 µM) and the MIC [18] was under 0.05 µg/mL. It also gave an MIC ([19]; Mycoplasma synoviae, broth-dilution microtiter) of 0.19 µg/mL (≈ 0.207 µM), an MIC ([20]; Mycoplasma hyorhinis, broth-dilution microtiter) of 12.5 µg/mL (≈ 13.6 µM) and an MIC [21] of 12.5 µg/mL (≈ 13.6 µM). The “ED50, Oral” value ([22]; oral) was 31 mg/kg × 2, the “ED50, Subcutaneous” value ([22]; subcutaneous) was over 10 mg/kg × 2 and the “Number of Deaths/Number tested” value ([23]; 1.5 g/gal equivalent) was 10/10.
`CCC1OC(=O)CC(O)C(C)C(OC2OC(C)C(O)C(N(C)C)C2O)C(CCOc2ccc(C(=O)c3ccccc3)cc2)CC(C)C(=O)C=CC(C)=CC1COC1OC(C)C(O)C(OC)C1OC` (stereo not drawn) [Compound 37, 20-DH-20-O-(p-Benzoylphenyl)desmycosin] was tested, and the MIC ([1]; Staphylococcus aureus, X1.1) was 0.25 µg/mL (≈ 0.262 µM), the MIC ([2]; Staphylococcus aureus, V41) was 0.25 µg/mL (≈ 0.262 µM) and the MIC ([3]; Staphylococcus aureus, X400) was 0.25 µg/mL (≈ 0.262 µM). For the same compound, the MIC ([4]; Staphylococcus aureus, S13E) was 0.25 µg/mL (≈ 0.262 µM), the MIC ([5]; Staphylococcus epidermidis, EPI1) was 0.25 µg/mL (≈ 0.262 µM) and the MIC ([6]; read-out: MIC) was 0.12 µg/mL (≈ 0.126 µM). For the same compound, the MIC [9] was 0.25 µg/mL (≈ 0.262 µM), the MIC ([10]; GROUP9960) was 0.5 µg/mL (≈ 0.524 µM) and the MIC ([11]; Haemophilus influenzae) was 16 µg/mL (≈ 16.8 µM). For the same compound, the MIC ([12]; Haemophilus influenzae, R252) was 16 µg/mL (≈ 16.8 µM), the MIC ([13]; read-out: MIC) was 0.19 µg/mL (≈ 0.199 µM) and the MIC [14, 24] was 0.19 µg/mL (≈ 0.199 µM). It also gave an MIC ([15]; Pasteurella multocida, 17E) of 12.5 µg/mL (≈ 13.1 µM), an MIC ([16]; read-out: MIC) of 25 µg/mL (≈ 26.2 µM) and an MIC ([17]; Pasteurella, 22C) of 12.5 µg/mL (≈ 13.1 µM). For the same compound, the MIC [18, 25] was 0.19 µg/mL (≈ 0.199 µM), the MIC ([19]; Mycoplasmopsis synoviae) was 1.56 µg/mL (≈ 1.63 µM) and the MIC ([20]; Mycoplasma) was 0.78 µg/mL (≈ 0.817 µM). It also gave an MIC [21, 26] of 0.19 µg/mL (≈ 0.199 µM), an ED50 [22, 27] of 7.2 mg/kg and an ED50 [22, 28] of 18 mg/kg. The “Number of Deaths/Number tested” value ([23]; 1.5 g/gal equivalent) was 10/10.
